Test results reported in US8283465B2, “Triazolopyridine compound, and action thereof as prolyl hydroxylase inhibitor or erythropoietin production-inducing agent” (Japan Tobacco Inc., priority 2009, dated 2012).
Counter-ions that a name gives are not always drawn. Like-named read-outs stand apart in the source and are kept apart here.

Experiments:
human PHD2 = biological target: T1, human PHD2 (Homo sapiens, UniProt Q9GZT9); experiment: Measurement of human PHD inhibitory activity (TR-FRET, hydroxylation of HIF-1α partial peptide); type: biochemical; conditions: human PHD2 enzyme 1 nM, 25° C. 30 min, values consisting solely of numbers
T1 construct: made in house; host or cells: Sf9 insect cells (baculovirus, pVL1393 vector)
T1 sequence (Q9GZT9 whole entry): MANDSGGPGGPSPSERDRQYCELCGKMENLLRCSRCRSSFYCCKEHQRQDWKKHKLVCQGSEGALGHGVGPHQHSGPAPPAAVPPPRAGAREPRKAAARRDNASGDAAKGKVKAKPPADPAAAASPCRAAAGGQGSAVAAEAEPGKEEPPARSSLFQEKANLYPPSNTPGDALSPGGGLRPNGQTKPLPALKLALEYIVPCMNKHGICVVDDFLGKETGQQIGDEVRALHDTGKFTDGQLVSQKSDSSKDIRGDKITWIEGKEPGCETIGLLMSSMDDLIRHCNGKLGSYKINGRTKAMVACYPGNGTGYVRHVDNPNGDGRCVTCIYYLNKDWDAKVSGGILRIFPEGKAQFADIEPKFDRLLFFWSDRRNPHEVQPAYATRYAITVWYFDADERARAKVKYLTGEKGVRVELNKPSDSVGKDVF
Experimental: Human PHD2 was expressed in insect cell (Sf9 cell). […] The vector and baculovirus were cotransfected into Sf9, and human PHD2 expression baculovirus was isolated in Sf9. By using the virus, human PHD2-expressed cell was prepared. […] The cell lysate was flowed into a column filled with ANTI-FLAG M2 Affinity Gel Freezer Safe (SIGMA), washed, and the N-terminal FLAG-tag-added human PHD2 was eluted and collected.
VBC complex (VHL/Elongin B/Elongin C) was expressed in Escherichia coli (BL21(DE3)). […] After these expression vectors were transfected into Escherichia coli (BL21(DE3)), Escherichia coli was cultured at 37° C. in the medium containing IPTG. The collected Escherichia coli was disrupted by sonication and flowed into a column filled with Ni-NTA superflow (QIAGEN), washed, and the product was eluted and collected. The eluate was flowed into a column filled with Glutathione Sepharose 4B, washed, and the product was eluted and collected. […]
As for human PHD2 enzyme activity, hydroxylation of proline residue contained in the 19 residues of the partial peptide based on the sequence of HIF-1α as a substrate was measured by TR-FRET (Time-Resolved Fluorescence Resonance Energy Transfer) method.
A test compound and a substrate solution were added to a 96-well plate. The reaction was started by addition of a human PHD2 enzyme solution (final concentration 1 nM) to the reaction system. After incubation at 25° C. for 30 min, a stop solution containing EDTA was added, and a VBC complex solution containing europium (Eu) and Xlent was added, and the amount of hydroxylated proline residue was quantified by time-resolved fluorescence spectroscopy. The time-resolved fluorescence in each well was measured, and the human PHD inhibitory activity (%) of the test compound was calculated based on the values of enzyme non-addition well and test compound non-addition well.

[1] = system: human EPO production, Hep3B cells; experiment: Human EPO production activity in Hep3B cells (EPO-ELISA of culture supernatant); type: cell-based; conditions: for EC50: 24 hr incubation, values consisting solely of numbers, read-out: EC50 (μM) in vitro, human EPO production activity; for production activity (%) at 30 μM in vitro, human EPO: 24 hr, values containing %, relative to maximum production
Experimental: The activity of the test compound on human EPO production was measured using Hep3B (AMC) established from human liver-derived cell line.
Hep3B cells were cultured in Eagle-MEM medium containing 10% fetal bovine serum, and the test compound was diluted with dimethyl sulfoxide (DMSO).
Hep3B cells were cultured in a 96-well plate, and a test compound was added at each concentration 24 hr later. After incubation at 37° C. for 24 hr, the culture supernatant was collected. The concentration of human EPO produced in the culture supernatant was measured using a human EPO-ELISA kit (manufactured by StemCell Technologies, 01630) according to the manufacturer's explanation, and the human EPO production activity (%) of the test compound was calculated based on the maximum value of production under the above conditions and the value without addition of the test compound. […] In these Tables, the values consisting solely of numbers show EC50 (μM) and those containing % show human EPO production activity (%) at […].

[2] = read-out: IC50 (μM) in vitro, human PHD inhibitory activity

IC50 (human PHD2; [2]) | SMILES | EC50 ([1]; Homo sapiens, Hep3B, 24 h) | further results
0.42 µM | O=C(O)CNC(=O)c1c(O)cc(-c2ccc(F)c(C(F)(F)F)c2)n2ncnc12 [Example 1, {[5-(4-fluoro-3-trifluoromethylphenyl)-7-hydroxy[1,2,4]triazolo[1,5-a]pyridine-8-carbonyl]amino}acetic acid hydrochloride] |  | EC50 ([1]; Homo sapiens): 9.9 µM
 | O=C(O)CNC(=O)c1c(O)cc(CCc2ccccc2)n2ncnc12 [Example 2, [(7-hydroxy-5-phenethyl[1,2,4]triazolo[1,5-a]pyridine-8-carbonyl)amino]acetic acid hydrochloride] | 10.9 µM | IC50 (human PHD2; IC50 (μM) in vitro, human PHD inhibitory activity): 0.22 µM
 | CCCCc1cc(O)c(C(=O)NCC(=O)O)c2ncnn12 [Example 3, [(5-butyl-7-hydroxy[1,2,4]triazolo[1,5-a]pyridine-8-carbonyl)amino]acetic acid hydrochloride] | 12.4 µM | 
 | CCc1c(O)c(C(=O)NCC(=O)O)c2ncnn2c1CC.Cl [Example 4, [(5,6-diethyl-7-hydroxy[1,2,4]triazolo[1,5-a]pyridine-8-carbonyl)amino]acetic acid hydrochloride] |  | production activity (%) at 30 μM in vitro, human EPO [1]: 38%
1.17 µM | O=C(O)CNC(=O)c1c(O)c(CCc2ccccc2)cn2ncnc12 [Example 5, [(7-hydroxy-6-phenethyl[1,2,4]triazolo[1,5-a]pyridine-8-carbonyl)amino]acetic acid hydrochloride] |  | EC50 ([1]; Homo sapiens): 11.5 µM
0.87 µM | CCCCc1c(Cl)c(O)c(C(=O)NCC(=O)O)c2ncnn12 [Example 6, [(5-butyl-6-chloro-7-hydroxy[1,2,4]triazolo[1,5-a]pyridine-8-carbonyl)amino]acetic acid hydrochloride] |  | EC50 ([1]; Homo sapiens): 20.8 µM
 | Cc1nc2c(C(=O)NCC(=O)O)c(O)cc(CCc3ccccc3)n2n1 [Example 7, [(7-hydroxy-2-methyl-5-phenethyl[1,2,4]triazolo[1,5-a]pyridine-8-carbonyl)amino]acetic acid hydrochloride] | 18.4 µM | 
0.49 µM | CC(C)(C)CCc1cc(O)c(C(=O)NCC(=O)O)n2ncnc12 [Example 8, {[8-(3,3-dimethyl-butyl)-6-hydroxy[1,2,4]triazolo[1,5-a]pyridine-5-carbonyl]amino}acetic acid hydrochloride] |  | EC50 ([1]; Homo sapiens): 13.4 µM
1.57 µM | O=C(O)CNC(=O)c1c(O)c(-c2ccccc2)cn2cnnc12 [Example 9, [(7-hydroxy-6-phenyl[1,2,4]triazolo[4,3-a]pyridine-8-carbonyl)amino]acetic acid] |  | production activity (%) at 30 μM in vitro, human EPO [1]: 1%
 | O=C(O)CNC(=O)c1c(O)ccn2cnnc12 [Example 10, [(7-hydroxy[1,2,4]triazolo[4,3-a]pyridine-8-carbonyl)amino]acetic acid hydrochloride] |  | production activity (%) at 30 μM in vitro, human EPO [1]: 0%
0.29 µM | O=C(O)CNC(=O)c1c(O)ccc2cnnn12 [Example 11, [(6-hydroxy[1,2,3]triazolo[1,5-a]pyridine-7-carbonyl)amino]acetic acid] |  | production activity (%) at 30 μM in vitro, human EPO [1]: 1%
 | O=C(O)CNC(=O)c1c(O)ccn2ncnc12 [Example 12, [(7-hydroxy[1,2,4]triazolo[1,5-a]pyridine-8-carbonyl)amino]acetic acid hydrochloride] |  | production activity (%) at 30 μM in vitro, human EPO [1]: 5%
1.31 µM | O=C(O)CNC(=O)c1c(O)ccn2nc(-c3ccccc3)nc12 [Example 13, [(7-hydroxy-2-phenyl[1,2,4]triazolo[1,5-a]pyridine-8-carbonyl)amino]acetic acid hydrochloride] |  | production activity (%) at 30 μM in vitro, human EPO [1]: 1%
 | O=C(O)CNC(=O)c1c(O)cc(CCc2ccc(F)cc2)n2ncnc12 [Example 17, ({5-[2-(4-fluorophenyl)ethyl]-7-hydroxy[1,2,4]triazolo[1,5-a]pyridine-8-carbonyl}amino)acetic acid hydrochloride] | 8.8 µM | 
 | O=C(O)CNC(=O)c1c(O)cc(-c2ccccc2)n2ncnc12 [Example 22, [(7-hydroxy-5-phenyl[1,2,4]triazolo[1,5-a]pyridine-8-carbonyl)amino]acetic acid hydrochloride] | 13.7 µM | 
 | O=C(O)CNC(=O)c1c(O)cc(C2CCCCC2)n2ncnc12 [Example 27, [(5-cyclohexyl-7-hydroxy[1,2,4]triazolo[1,5-a]pyridine-8-carbonyl)amino]acetic acid hydrochloride] | 7.7 µM | 
 | O=C(O)CNC(=O)c1c(O)cc(-c2cccc(Cl)c2)n2ncnc12 [Example 44, {[5-(3-chlorophenyl)-7-hydroxy[1,2,4]triazolo[1,5-a]pyridine-8-carbonyl]amino}acetic acid] | 10.4 µM | 
 | CCCc1cc(O)c(C(=O)NCC(=O)O)c2ncnn12 [Example 65, [(7-hydroxy-5-propyl[1,2,4]triazolo[1,5-a]pyridine-8-carbonyl)amino] acetic acid hydrochloride] |  | production activity (%) at 30 μM in vitro, human EPO [1]: 49%
 | CCCCCc1cn2ncnc2c(C(=O)NCC(=O)O)c1O [Example 71, [(7-hydroxy-6-pentyl[1,2,4]triazolo[1,5-a]pyridine-8-carbonyl)amino] acetic acid hydrochloride] | 15.8 µM | 
 | CCCCCc1cc(O)c(C(=O)NCC(=O)O)c2ncnn12 [Example 74, [(7-hydroxy-5-pentyl[1,2,4]triazolo[1,5-a]pyridine-8-carbonyl)amino] acetic acid hydrochloride] | 8.3 µM | 
 | O=C(O)CNC(=O)c1c(O)cc(-c2ccccc2)c2ncnn12 [Example 83, [(6-hydroxy-8-phenyl[1,2,4]triazolo[1,5-a]pyridine-5-carbonyl)amino] acetic acid hydrochloride] | 20.7 µM | 
 | O=C(O)CNC(=O)c1c(O)cc(-c2cccc(Cl)c2)c2ncnn12 [Example 84, {[8-(3-chlorophenyl)-6-hydroxy[1,2,4]triazolo[1,5-a]pyridine-5-carbonyl]amino} acetic acid] | 11 µM | 
 | O=C(O)CNC(=O)c1c(O)cc(CCc2ccccc2)c2ncnn12 [Example 87, [(6-hydroxy-8 phenethyl[1,2,4]triazolo[1,5-a]pyridine-5-carbonyl)amino] acetic acid hydrochloride] | 18.5 µM | 
 | O=C(O)CNC(=O)c1c(O)cc(C2CCCCC2)c2ncnn12 [Example 92, [(8-cyclohexyl-6-hydroxy[1,2,4]triazolo[1,5-a]pyridine-8-carbonyl]amino] acetic acid hydrochloride] | 18.5 µM | 
 | Cl.O=C(O)CNC(=O)c1c(O)ccc2ncnn12 [Example 107, [(6-hydroxy[1,2,4]triazolo[1,5-a]pyridine-5-carbonyl]amino} acetic acid hydrochloride] |  | production activity (%) at 30 μM in vitro, human EPO [1]: 4%
 | CCCCc1cc(O)c(C(=O)NCC(=O)O)c2ncnn12 [Example 117, [(5-butyl-7-hydroxy[1,2,4]triazolo[1,5-a]pyridine-8-carbonyl)amino] acetic acid] |  | EC50 [1]: 7.7 µM
0.64 µM | O=C(O)CNC(=O)c1c(O)cc(-c2cc(F)cc(C(F)(F)F)c2)n2ncnc12 [Example 118, {[5-(3-fluoro-5-trifluoromethyl phenyl)-7-hydroxy[1,2,4]triazolo[1,5-a]pyridine-8-carbonyl]amino} acetic acid] |  | 
0.33 µM | O=C(O)CNC(=O)c1c(O)cc(-c2ccc(F)c(C(F)(F)F)c2)n2ncnc12 [Example 121, {[5-(4-fluoro-3-trifluoromethyl phenyl)-7-hydroxy[1,2,4]triazolo[1,5-a]pyridine-8-carbonyl]amino} acetic acid] |  | 
0.96 µM | O=C(O)CNC(=O)c1c(O)cc(-c2cc(F)cc(C3CC3)c2)n2ncnc12 [Example 122, {[5-(3-cyclopropyl-5-fluorophenyl)-7-hydroxy[1,2,4]triazolo[1,5-a]pyridine-8-carbonyl]amino} acetic acid] |  | 
